Drawing on patent US10219516B2, “Molecules having pesticidal utility, and intermediates, compositions, and processes, related thereto” (priority 2015, dated 2019), this text covers pest or weed control for 20 molecules.

Where two headings read alike, the source gives them in different places.

In test [1] the test system is Beet Armyworm (Spodoptera exigua, LAPHEG). The experiment in a line: Bioassay on Beet Armyworm (BAW), 128-well diet tray assay. In kind it is in vivo. In outline: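 In a 128-well format, eight wells per compound received a surface dose of 50 μg/cm^2 on artificial diet. After drying, each well got one to five second instar larvae, held at 25° C. with 14:10 photoperiod. Mortality percentages after five to seven days were averaged.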

Test [2] has as its system Cabbage Looper (Trichoplusia ni, TRIPNI). The experiment in a line: Bioassay on Cabbage Looper (CL), 128-well diet tray assay. The conditions noted are these: Trichoplusia ni. In kind it is in vivo. In outline:
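Percent mortality, averaged across eight replicate wells, was scored after five to seven days at 25° C. under a 14:10 light-dark cycle. Each well held one to five second instar larvae on artificial diet treated at 50 μg/cm^2 with compound from 90:10 acetone-water, allowed to dry before infestation.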

Setting [3] is: Beet Armyworm, 128-well diet tray assay, read-out: BAW rating.
Where [4] appears, read: Cabbage Looper, 128-well diet tray assay, read-out: CL rating.
The mark [5] stands for this setting: Species BAW (Beet Armyworm), read-out: BAW (Biological Results, rating).
[6] abbreviates: Species CL (Cabbage Looper), read-out: CL (Biological Results, rating).

Turning to `CC(C)(C)OC(=O)N(C(=O)OC(C)(C)C)c1cc(NC(=O)c2cc(NC(=O)[C@H]3[C@H](c4ccc(Cl)c(Cl)c4)C3(Cl)Cl)ccc2Cl)c(F)cc1F` [F520, tert-Butyl-N-((tert-butoxy)carbonyl)-N-(5-(2-chloro-5-((1R,3R)-2,2-dichloro-3-(3,4-dichlorophenyl)cyclopropane-1-carboxamido)benzamido)-2,4-difluorophenyl)carbamate], the pest or weed control at 50 µg/cm2 in test [1] (setting [3]) and in test [2] (setting [4]) was 50 to 100% throughout.

Consider `O=C(Nc1ccc(F)cc1)c1cc(NC(=O)[C@H]2[C@H](c3cc(Cl)c(Cl)cc3Cl)C2(Cl)Cl)ccc1Cl` (relative stereo) [F73, trans-2-Chloro-5-(2,2-dichloro-3-(2,4,5-trichlorophenyl)cyclopropane-1-carboxamido)-N-(4-fluorophenyl)benzamide], for which the pest or weed control at 50 µg/cm2 in test [1] (setting [5]) and in test [2] (setting [6]) was 50 to 100% in each case.

For the molecule `CN(C(=O)c1cc(NC(=O)[C@H]2[C@H](c3cc(Cl)cc(Cl)c3)C2(Cl)Cl)ccc1Cl)c1ccc(C#N)cc1F` (relative stereo) [F106, trans-2-Chloro-N-(4-cyano-2-fluorophenyl)-5-(2,2-dichloro-3-(3,5-dichlorophenyl)cyclopropane-1-carboxamido)-N-methylbenzamide], the pest or weed control at 50 µg/cm2 in test [1] (setting [5]) and in test [2] (setting [6]) was 50 to 100% in each case.

Turning to `Cc1cc(NC(=O)OC(C)(C)C)ccc1NC(=O)c1cc(NC(=O)[C@H]2[C@H](c3cc(Cl)c(Cl)c(Cl)c3)C2(Cl)Cl)ccc1Cl` [F278, tert-Butyl (4-(2-chloro-5-((1R,3R)-2,2-dichloro-3-(3,4,5-trichlorophenyl)cyclopropane-1-carboxamido)benzamido)-3-methylphenyl)carbamate], the pest or weed control at 50 µg/cm2 in test [1] (setting [5]) and in test [2] (setting [6]) was 50 to 100% each time.

Take `O=C(Nc1cccc(Cl)c1)c1cc(NC(=O)[C@H]2[C@H](c3cc(Cl)cc(Cl)c3)C2(Cl)Cl)ccc1Cl` (relative stereo) [F43, trans-2-Chloro-N-(3-chlorophenyl)-5-(2,2-dichloro-3-(3,5-dichlorophenyl)cyclopropane-1-carboxamido)benzamide]: the pest or weed control at 50 µg/cm2 in test [1] (setting [5]) and in test [2] (setting [6]) was 50 to 100% throughout.

On to `CC(=O)N(C)c1ccc(NC(=O)c2cc(NC(=O)[C@H]3[C@H](c4cc(Cl)cc(Cl)c4)C3(Cl)Cl)ccc2Cl)cc1` (relative stereo) [PF14, trans-2-Chloro-5-(2,2-dichloro-3-(3,5-dichlorophenyl)cyclopropane-1-carboxamido)-N-(4-(N-methylacetamido)phenyl)benzamide], for which the pest or weed control at 50 µg/cm2 in test [1] (setting [3]) and in test [2] (setting [4]) was 50 to 100% each time.

As to `CC(C)(C)OC(=O)N(C(=O)OC(C)(C)C)c1cc(NC(=O)c2cc(NC(=O)[C@H]3[C@H](c4cc(Cl)cc(Cl)c4)C3(Cl)Cl)ccc2Cl)c(F)cc1F` [F519, tert-Butyl-N-((tert-butoxy)carbonyl)-N-(5-(2-chloro-5-((1R,3R)-2,2-dichloro-3-(3,5-dichlorophenyl)cyclopropane-1-carboxamido)benzamido)-2,4-difluorophenyl)carbamate], the pest or weed control at 50 µg/cm2 in test [1] (setting [3]) and in test [2] (setting [4]) was 50 to 100% throughout.

For `Cc1cc(NS(C)(=O)=O)ccc1NC(=O)c1cc(NC(=O)C2C(c3cc(Cl)cc(Cl)c3)C2(Cl)Cl)ccc1Cl` (stereo not drawn) [F487, 2-chloro-5-(trans)-2,2-dichloro-3-(3,5-dichlorophenyl)cyclopropane-1-carboxamido)-N-(2-methyl-4-(methylsulfonamido)phenyl)benzamide], the pest or weed control at 50 µg/cm2 in test [1] (setting [3]) and in test [2] (setting [4]) was 50 to 100% in each case.

In the case of `N#Cc1ccc(NC(=O)c2cc(NC(=O)[C@H]3[C@H](c4ccc(Cl)c(Cl)c4)C3(Cl)Cl)ccc2Cl)c(F)c1` (relative stereo) [F103, trans-2-chloro-N-(4-cyano-2-fluorophenyl)-5-(2,2-dichloro-3-(3,4-dichlorophenyl)cyclopropane-1-carboxamido)benzamide], the pest or weed control at 50 µg/cm2 in test [1] (setting [5]) and in test [2] (setting [6]) was 50 to 100% in each case.

With `O=C(Nc1ccc2c(ccn2Cc2ccccc2)c1)c1cc(NC(=O)[C@H]2[C@H](c3cc(Cl)cc(Cl)c3)C2(Cl)Cl)ccc1Cl` (relative stereo) [F458, N-(1-Benzyl-1H-indol-5-yl)-2-chloro-5-(trans)-(2,2-dichloro-3-(3,5-dichlorophenyl)cyclopropane-1-carboxamido)benzamide], the pest or weed control at 50 µg/cm2 in test [1] (setting [3]) and in test [2] (setting [4]) was 50 to 100% in each case.

On to `CN(C(=O)C(F)(F)F)c1ccc(NC(=O)c2cc(NC(=O)[C@H]3[C@H](c4cc(Cl)cc(Cl)c4)C3(Cl)Cl)ccc2Cl)cc1` (relative stereo) [PF29, trans-2-Chloro-5-(2,2-dichloro-3-(3,5-dichlorophenyl)cyclopropane-1-carboxamido)-N-(4-(2,2,2-trifluoro-N-methylacetamido)phenyl)benzamide], for which the pest or weed control at 50 µg/cm2 in test [1] (setting [3]) and in test [2] (setting [4]) was 50 to 100% each time.

As for `O=C(Nc1cc(F)cc([N+](=O)[O-])c1)c1cc(NC(=O)[C@H]2[C@H](c3ccc(Cl)c(Cl)c3)C2(Cl)Cl)ccc1Cl` [F416, 2-Chloro-5-((1R,3R)-2,2-dichloro-3-(3,4-dichlorophenyl)cyclopropane-1-carboxamido)-N-(3-fluoro-5-nitrophenyl)benzamide], the pest or weed control at 50 µg/cm2 in test [1] (setting [3]) and in test [2] (setting [4]) was 50 to 100% throughout.

As to `O=C(Nc1ccc(F)cc1)c1cc(NC(=O)[C@H]2[C@H](c3cc(Br)cc(Br)c3)C2(Cl)Cl)ccc1Cl` (relative stereo) [F90, trans-2-Chloro-5-(2,2-dichloro-3-(3,5-dibromophenyl)cyclopropane-1-carboxamido)-N-(4-fluorophenyl)benzamide], the pest or weed control at 50 µg/cm2 in test [1] (setting [5]) and in test [2] (setting [6]) was 50 to 100% in each case.

`Cc1cc(C(F)(C(F)(F)F)C(F)(F)F)cc(C)c1NC(=O)c1cc(NC(=O)[C@H]2[C@H](c3cc(Cl)cc(Cl)c3)C2(Cl)Cl)ccc1Cl` (relative stereo) [PF60, trans-2-Chloro-5-(2,2-dichloro-3-(3,5-dichlorophenyl)cyclopropane-1-carboxamido)-N-(2,6-dimethyl-4-(perfluoropropan-2-yl)phenyl)benzamide]: the pest or weed control at 50 µg/cm2 in test [1] (setting [3]) and in test [2] (setting [4]) was 50 to 100% throughout.

In the case of `CC(=O)Nc1ccc(NC(=O)c2cc(NC(=O)[C@H]3[C@H](c4ccc(Cl)c(Cl)c4)C3(Cl)Cl)ccc2Cl)c(F)c1` (relative stereo) [PF41, trans-N-(4-Acetamido-2-fluorophenyl)-2-chloro-5-(2,2-dichloro-3-(3,4-dichlorophenyl)cyclopropane-1-carboxamido)benzamide], the pest or weed control at 50 µg/cm2 in test [1] (setting [3]) and in test [2] (setting [4]) was 50 to 100% each time.

With `O=C(Nc1c(F)cccc1F)c1cc(NC(=O)[C@H]2[C@H](c3ccccc3)C2(Cl)Cl)ccc1Cl` (relative stereo) [F111, trans-2-Chloro-5-(2,2-dichloro-3-phenylcyclopropane-1-carboxamido)-N-(2,6-difluorophenyl)benzamide], the pest or weed control at 50 µg/cm2 in test [1] (setting [5]) and in test [2] (setting [6]) was 50 to 100% in each case.

On to `O=C(Nc1ccc(F)cc1)c1cc(NC(=O)[C@H]2[C@H](c3cc(Cl)c(Br)c(Cl)c3)C2(Cl)Cl)ccc1Cl` (relative stereo) [F72, trans-5-(3-(4-Bromo-3,5-dichlorophenyl)-2,2-dichlorocyclopropane-1-carboxamido)-2-chloro-N-(4-fluorophenyl)benzamide], for which the pest or weed control at 50 µg/cm2 in test [1] (setting [5]) and in test [2] (setting [6]) was 50 to 100% each time.

For the molecule `CN(C(=O)c1cc(NC(=O)[C@H]2[C@H](c3cc(Cl)c(F)c(Cl)c3)C2(Cl)Cl)ccc1Cl)c1ccc(F)cc1` (relative stereo) [F97, trans-2-Chloro-5-(2,2-dichloro-3-(3,5-dichloro-4-fluorophenyl)cyclopropane-1-carboxamido)-N-(4-fluorophenyl)-N-methylbenzamide], the pest or weed control at 50 µg/cm2 in test [1] (setting [5]) and in test [2] (setting [6]) was 50 to 100% throughout.

As for `N#CC1(C(=O)Nc2ccc(NC(=O)c3cc(NC(=O)[C@H]4[C@H](c5cc(Cl)cc(Cl)c5)C4(Cl)Cl)ccc3Cl)cc2)CC1` (relative stereo) [PF109, trans-2-Chloro-N-(4-(1-cyanocyclopropane-1-carboxamido)phenyl)-5-(2,2-dichloro-3-(3,5-dichlorophenyl)cyclopropane-1-carboxamido)benzamide], the pest or weed control at 50 µg/cm2 in test [1] (setting [3]) and in test [2] (setting [4]) was 50 to 100% throughout.

In the case of `CN(C(=O)c1cc(NC(=O)[C@H]2[C@H](c3cc(Cl)c(Cl)c(Cl)c3)C2(Cl)Cl)ccc1F)c1ccc(F)cc1` (relative stereo) [F60, trans-5-(2,2-dichloro-3-(3,4,5-trichlorophenyl)cyclopropane-1-carboxamido)-2-fluoro-N-(4-fluorophenyl)-N-methylbenzamide], the pest or weed control at 50 µg/cm2 in test [1] (setting [5]) and in test [2] (setting [6]) was 50 to 100% throughout.
